# Experimental data from ChEMBL document CHEMBL1140563, “Redefining the structure-activity relationships of 2,6-methano-3-benzazocines. 5. Opioid receptor binding properties of N-((4'-phenyl)-phenethyl) analogues of 8-CAC” (Bioorg Med Chem Lett, 2007).
# The source made the active and inactive calls. No cut-off for these calls is given here.
# Key:
# [1] = target: T1, Mu-type opioid receptor (Homo sapiens, UniProt P35372); assay: Displacement of [3H]DAMGO from mu opioid receptor expressed in CHO cells; assay type: cell-based
# [2] = target: T2, Delta-type opioid receptor (Homo sapiens, UniProt P41143); assay: Displacement of [3H]naltrindole from delta opioid receptor expressed in CHO cells; assay type: cell-based
# [3] = target: T3, Kappa-type opioid receptor (Homo sapiens, UniProt P41145); assay: biochemical; assay type: cell-based, CHO
# Description: Displacement of [3H]U-69593 from kappa opioid receptor expressed in CHO cells
# [4] = target: T1, Mu-type opioid receptor; assay: Agonist activity at human mu opioid receptor expressed in CHO cell membrane by [35S]GTPgammaS binding assay; assay type: functional, cell membranes
# [5] = target: T3, Kappa-type opioid receptor; assay: Agonist activity at human kappa opioid receptor expressed in CHO cell membrane by [35S]GTP-gamma-S binding assay; assay type: functional, cell membranes
# [6] = target: T1, Mu-type opioid receptor; assay: Antagonist activity at human mu opioid receptor expressed in CHO cell membrane assessed as inhibition of DAMGO induced [35S]GTP-gamma-S binding; assay type: functional, cell membranes
# [7] = target: T3, Kappa-type opioid receptor; assay: Antagonist activity at human kappa opioid receptor expressed in CHO cell membrane assessed as inhibition of U50,488 induced [35S]GTPgammaS binding; assay type: functional, cell membranes
# [8] = target: T2, Delta-type opioid receptor; assay: Agonist activity at human delta opioid receptor expressed in CHO cell membrane by [35S]GTP-gamma-S binding assay; assay type: functional, cell membranes
# [9] = target: T2, Delta-type opioid receptor; assay: Antagonist activity at human delta opioid receptor expressed in CHO cell membrane assessed as inhibition of SNC80 induced [35S]GTPgammaS binding; assay type: functional, cell membranes
# [10] = target: T1, Mu-type opioid receptor; assay: Antagonist activity at human mu opioid receptor expressed in CHO cell membrane assessed as inhibition of DAMGO induced [35S]GTP-gamma-S binding at 10 uM; assay type: functional, cell membranes
# T2 sequence (P41143 whole entry): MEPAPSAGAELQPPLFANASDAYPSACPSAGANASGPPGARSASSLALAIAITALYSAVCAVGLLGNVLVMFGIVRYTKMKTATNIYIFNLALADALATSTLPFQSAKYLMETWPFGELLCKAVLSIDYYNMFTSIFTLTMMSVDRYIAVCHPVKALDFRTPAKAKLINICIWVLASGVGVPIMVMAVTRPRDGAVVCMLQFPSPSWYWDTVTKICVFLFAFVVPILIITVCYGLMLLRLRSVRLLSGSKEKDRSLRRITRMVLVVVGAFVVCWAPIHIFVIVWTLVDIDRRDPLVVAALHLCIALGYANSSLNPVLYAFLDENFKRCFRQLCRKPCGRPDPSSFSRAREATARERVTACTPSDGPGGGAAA
# T3 sequence (P41145 whole entry): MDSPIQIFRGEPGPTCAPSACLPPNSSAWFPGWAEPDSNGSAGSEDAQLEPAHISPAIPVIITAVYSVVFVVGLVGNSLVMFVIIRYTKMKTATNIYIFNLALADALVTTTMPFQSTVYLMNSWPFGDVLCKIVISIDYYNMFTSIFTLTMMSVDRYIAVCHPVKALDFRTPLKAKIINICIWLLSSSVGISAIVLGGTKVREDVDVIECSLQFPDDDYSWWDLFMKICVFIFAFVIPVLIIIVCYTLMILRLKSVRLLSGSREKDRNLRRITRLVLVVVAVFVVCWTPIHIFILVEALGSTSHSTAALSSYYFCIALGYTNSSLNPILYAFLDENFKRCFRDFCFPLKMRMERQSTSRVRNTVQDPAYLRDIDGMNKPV
# T1 sequence (P35372 whole entry): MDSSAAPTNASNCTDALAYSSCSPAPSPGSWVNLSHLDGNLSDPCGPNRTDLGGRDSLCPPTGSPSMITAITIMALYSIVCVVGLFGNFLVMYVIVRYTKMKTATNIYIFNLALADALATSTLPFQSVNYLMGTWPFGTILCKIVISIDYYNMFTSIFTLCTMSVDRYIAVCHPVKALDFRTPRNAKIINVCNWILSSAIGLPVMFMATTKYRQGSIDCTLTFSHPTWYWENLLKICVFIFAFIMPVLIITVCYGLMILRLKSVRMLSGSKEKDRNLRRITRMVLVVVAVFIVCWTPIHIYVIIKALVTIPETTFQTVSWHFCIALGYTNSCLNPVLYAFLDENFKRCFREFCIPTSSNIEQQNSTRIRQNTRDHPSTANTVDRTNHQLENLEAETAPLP
SMILES,Ki [1] [nM],Ki [2] [nM],Ki [3] [nM],EC50 [4] [nM],Emax [4] [%],EC50 [5] [nM],Emax [5] [%],IC50 [6] [nM],Imax [6] [%],Activity [7],EC50 [8] [nM],Emax [8] [%],Activity [6],Activity [9],Imax [10] [%]
C[C@H]1C2Cc3ccc(C(=O)NCCCc4ccc5ccccc5c4)cc3[C@@]1(C)CCN2CC1CC1,1.9,18,0.18,24,31,6.3,98,320,78,inactive,,,,,
C[C@H]1C2Cc3ccc(C(=O)NCCc4ccc(-c5ccc(Cl)cc5)cc4)cc3[C@@]1(C)CCN2CC1CC1,,,,2.5,31,6.4,96,,,inactive,2,45,inactive,inactive,71
C[C@H]1C2Cc3ccc(C(=O)NCCc4ccc(Br)cc4)cc3[C@@]1(C)CCN2CC1CC1,2.4,2.5,0.38,16,73,20,110,,,inactive,20,120,inactive,inactive,
C[C@H]1C2Cc3ccc(C(=O)NCc4ccc5ccccc5c4)cc3[C@@]1(C)CCN2CC1CC1,1.3,31,19,,,,,,,,,,,,
COc1ccc(-c2ccc(CCNC(=O)c3ccc4c(c3)[C@@]3(C)CCN(CC5CC5)C(C4)[C@@H]3C)cc2)cc1,,,,11,27,1.1,98,24,82,inactive,0.68,70,,inactive,
C[C@H]1C2Cc3ccc(C(=O)NCCc4ccc5ccccc5c4)cc3[C@@]1(C)CCN2CC1CC1,0.18,0.9,0.2,,,,,,,,,,,,
C[C@H]1C2Cc3ccc(C(=O)NCCc4cccc(Br)c4)cc3[C@@]1(C)CCN2CC1CC1,0.35,3.5,0.063,5.6,24,4.6,110,230,85,inactive,14,85,,inactive,
C[C@H]1C2Cc3ccc(C(=O)NCCc4cccc(-c5ccccc5)c4)cc3[C@@]1(C)CCN2CC1CC1,0.95,5.9,,6.8,41,12,95,,,inactive,18,43,inactive,inactive,72
C[C@H]1C2Cc3ccc(C(=O)NCCc4ccccc4Br)cc3[C@@]1(C)CCN2CC1CC1,4,150,19,,,,,,,,,,,,
C[C@H]1[C@H]2Cc3ccc(O)cc3[C@@]1(C)CCN2CC1CC1,,2,0.07,,,,,,,,,,,,
C[C@H]1C2Cc3ccc(C(=O)NCCCc4cccc5ccccc45)cc3[C@@]1(C)CCN2CC1CC1,2.4,18,1.9,,,,,,,,,,,,
C[C@H]1C2Cc3ccc(C(=O)NCCc4ccc(-c5ccc(Cl)c(Cl)c5)cc4)cc3[C@@]1(C)CCN2CC1CC1,0.98,2.5,1.1,,,,,,,,,,,,
C[C@H]1C2Cc3ccc(C(=O)NCCc4cccc5ccccc45)cc3[C@@]1(C)CCN2CC1CC1,4.2,24,2.4,,,,,,,,,,,,
C[C@H]1C2Cc3ccc(C(=O)NCc4cccc5ccccc45)cc3[C@@]1(C)CCN2CC1CC1,2.5,52,18,,,,,,,,,,,,
C[C@H]1C2Cc3ccc(C(=O)NCCc4ccccc4-c4ccccc4)cc3[C@@]1(C)CCN2CC1CC1,6.7,21,2.4,12,36,42,97,,,,,,,,73
